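These data come from cells grown in 96-well plates and exposed to compound for 48 hours at five concentrations. Abbreviation: GI50, concentration required for 50% inhibition of growth.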 The source made the active and inactive calls. Rule as the data show it: active = GI50 up to about 1.1 µM and inactive = higher.
Columns and labels:
Assay in all cases: NCI anticancer screen, dose series, 48 h
[1] = test system: SK-MEL-28
[2] = test system: A549
[3] = test system: HOP-62
[4] = test system: NCI-H522
[5] = test system: NCI-H460
[6] = test system: ACHN
[7] = test system: SF-539
[8] = test system: HT-29
[9] = test system: 786-0
[10] = test system: RPMI-8226
[11] = test system: HCC 2998
[12] = test system: HCT-116
[13] = test system: HL-60
[14] = test system: SR
[15] = test system: RXF 393
[16] = test system: SK-MEL-2
[17] = test system: OVCAR-5
[18] = test system: IGROV-1
[19] = test system: M19-MEL
[20] = test system: SK-MEL-5

SMILES | GI50 [1] | GI50 [2] | GI50 [3] | GI50 [4] | GI50 [5] | GI50 [6] | GI50 [7] | GI50 [8] | GI50 [9] | GI50 [10] | GI50 [11] | GI50 [12] | GI50 [13] | GI50 [14] | GI50 [15] | GI50 [16] | GI50 [17] | GI50 [18] | GI50 [19] | GI50 [20]
Clc1ccc(CN2COc3c(cc(Cl)c4cccnc34)C2)cc1 | 2.57 µM (inactive) | 2.39 µM (inactive) | 1.5 µM (inactive) | 1.6 µM (inactive) | 2.29 µM (inactive) | 1.74 µM (inactive) | 2.03 µM (inactive) | 11.9 µM (inactive) | 2.74 µM (inactive) | 1.16 µM (inactive) | 4.3 µM (inactive) | 2.15 µM (inactive) | 0.546 µM (active) | 1.91 µM (inactive) | 1.58 µM (inactive) | 1.85 µM (inactive) | 2.24 µM (inactive) | 2.36 µM (inactive) | 2.28 µM (inactive) | 2.26 µM (inactive)
c1ccc(-c2[nH]c(-c3ccccc3)c(-c3cnccn3)c2-c2cnccn2)cc1 | > 100 µM (inactive) | > 100 µM (inactive) | > 100 µM (inactive) | > 100 µM (inactive) | > 100 µM (inactive) | > 100 µM (inactive) | > 100 µM (inactive) | 91.2 µM (inactive) | > 100 µM (inactive) | 82.6 µM (inactive) | > 100 µM (inactive) | > 100 µM (inactive) | > 100 µM (inactive) | 82.8 µM (inactive) | > 100 µM (inactive) | > 100 µM (inactive) | > 100 µM (inactive) | > 100 µM (inactive) | > 100 µM (inactive) | > 100 µM (inactive)
CCc1cccc(CC)c1NC(=O)/C(Cl)=C(/Cl)C(=O)O | 35.3 µM (inactive) | > 69.5 µM (inactive) | > 100 µM (inactive) | 10.2 µM (inactive) | > 100 µM (inactive) | 26.9 µM (inactive) | 33 µM (inactive) | 35 µM (inactive) | > 42.1 µM (inactive) | 32.1 µM (inactive) | > 48.2 µM (inactive) | 25 µM (inactive) | 5.05 µM (inactive) | > 44.3 µM (inactive) | 28.9 µM (inactive) | > 100 µM (inactive) | > 100 µM (inactive) | 32.2 µM (inactive) | 31.6 µM (inactive) | 36.7 µM (inactive)
